Test results published in ChEMBL document CHEMBL1201862, “PubChem BioAssay data set” (2004).
Activity calls are given as the source filed them. Rule as the data show it, for most assays here: actives have a measured EC50 and inactives only a lower limit.

Tests used:
[1] = target: T1, Heat shock factor protein 1 (Mus musculus, UniProt P38532); assay: inhibition of MG132-induced HSE-luciferase signal, confirmation, cell-based, NIH3T3, luminescence, dose retest (AID 2382); type: functional;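 also: NIH3T3 fibroblasts with HSF1-driven luciferase reporter stressed by proteasome inhibitor MG132; luminescence from HSF1-driven luciferase expression after 8 hours of MG132 stress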
T1 sequence (P38532 whole entry): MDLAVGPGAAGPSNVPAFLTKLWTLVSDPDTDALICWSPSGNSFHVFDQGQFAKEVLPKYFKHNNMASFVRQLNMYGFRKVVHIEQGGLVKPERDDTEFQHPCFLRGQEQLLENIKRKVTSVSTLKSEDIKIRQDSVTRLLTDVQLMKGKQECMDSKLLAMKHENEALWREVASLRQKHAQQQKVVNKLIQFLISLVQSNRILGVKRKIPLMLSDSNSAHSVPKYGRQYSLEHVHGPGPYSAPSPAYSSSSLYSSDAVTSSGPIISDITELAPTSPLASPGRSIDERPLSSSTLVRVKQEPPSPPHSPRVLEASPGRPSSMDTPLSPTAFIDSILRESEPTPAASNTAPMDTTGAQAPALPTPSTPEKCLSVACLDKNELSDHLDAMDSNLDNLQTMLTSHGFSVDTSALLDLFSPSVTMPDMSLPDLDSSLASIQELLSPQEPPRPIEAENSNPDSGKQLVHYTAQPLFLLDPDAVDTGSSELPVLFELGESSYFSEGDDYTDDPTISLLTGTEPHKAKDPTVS

[2] = target: T2, Zinc finger protein mex-5 (Caenorhabditis elegans, UniProt Q9XUB2); assay: MEX-5/TCR-2 RNA interaction inhibitors, dose response, biochemical, C. elegans, fluorescence polarization (AID 1960)
T2 sequence (Q9XUB2 whole entry): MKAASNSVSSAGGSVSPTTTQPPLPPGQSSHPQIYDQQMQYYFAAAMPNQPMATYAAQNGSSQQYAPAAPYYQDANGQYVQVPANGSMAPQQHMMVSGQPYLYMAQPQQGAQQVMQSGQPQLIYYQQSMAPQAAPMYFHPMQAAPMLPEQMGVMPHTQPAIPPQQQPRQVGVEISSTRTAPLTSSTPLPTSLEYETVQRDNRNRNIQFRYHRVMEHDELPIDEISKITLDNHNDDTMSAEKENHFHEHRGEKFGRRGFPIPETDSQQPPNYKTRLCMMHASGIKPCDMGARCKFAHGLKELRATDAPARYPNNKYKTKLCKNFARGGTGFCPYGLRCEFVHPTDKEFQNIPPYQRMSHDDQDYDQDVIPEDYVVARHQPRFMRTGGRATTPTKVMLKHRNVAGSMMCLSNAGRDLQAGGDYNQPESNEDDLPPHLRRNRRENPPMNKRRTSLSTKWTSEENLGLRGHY

[3] = target: T3, RNA-binding protein pos-1 (Caenorhabditis elegans, UniProt G5EF15); assay: inhibitors of POS-1/mex-3 RNA binding, dose response, biochemical, fluorescence polarization (AID 1964);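 also: purified POS-1 fused to maltose binding protein made in E. coli; potency of compounds blocking POS-1 binding to fluorescent RNA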
T3 sequence (G5EF15 whole entry): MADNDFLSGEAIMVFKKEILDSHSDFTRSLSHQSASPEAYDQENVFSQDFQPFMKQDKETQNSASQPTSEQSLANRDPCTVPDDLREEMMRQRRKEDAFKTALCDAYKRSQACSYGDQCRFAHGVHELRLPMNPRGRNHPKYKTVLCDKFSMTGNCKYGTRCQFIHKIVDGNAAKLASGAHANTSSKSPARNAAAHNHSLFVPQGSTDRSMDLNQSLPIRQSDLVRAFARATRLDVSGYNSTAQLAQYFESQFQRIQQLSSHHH

Protein RecA = target: T4, Protein RecA (Mycobacterium tuberculosis, UniProt P9WHJ3); assay: Fluorescence Cell-Free Homogeneous Dose Retest to Identify Inhibitors of RecA-Intein Splicing Activity. [Related pubchem assays (depositor defined):AID2097, AID2223, AID489010, AID492950]; type: functional
T4 sequence (P9WHJ3 whole entry): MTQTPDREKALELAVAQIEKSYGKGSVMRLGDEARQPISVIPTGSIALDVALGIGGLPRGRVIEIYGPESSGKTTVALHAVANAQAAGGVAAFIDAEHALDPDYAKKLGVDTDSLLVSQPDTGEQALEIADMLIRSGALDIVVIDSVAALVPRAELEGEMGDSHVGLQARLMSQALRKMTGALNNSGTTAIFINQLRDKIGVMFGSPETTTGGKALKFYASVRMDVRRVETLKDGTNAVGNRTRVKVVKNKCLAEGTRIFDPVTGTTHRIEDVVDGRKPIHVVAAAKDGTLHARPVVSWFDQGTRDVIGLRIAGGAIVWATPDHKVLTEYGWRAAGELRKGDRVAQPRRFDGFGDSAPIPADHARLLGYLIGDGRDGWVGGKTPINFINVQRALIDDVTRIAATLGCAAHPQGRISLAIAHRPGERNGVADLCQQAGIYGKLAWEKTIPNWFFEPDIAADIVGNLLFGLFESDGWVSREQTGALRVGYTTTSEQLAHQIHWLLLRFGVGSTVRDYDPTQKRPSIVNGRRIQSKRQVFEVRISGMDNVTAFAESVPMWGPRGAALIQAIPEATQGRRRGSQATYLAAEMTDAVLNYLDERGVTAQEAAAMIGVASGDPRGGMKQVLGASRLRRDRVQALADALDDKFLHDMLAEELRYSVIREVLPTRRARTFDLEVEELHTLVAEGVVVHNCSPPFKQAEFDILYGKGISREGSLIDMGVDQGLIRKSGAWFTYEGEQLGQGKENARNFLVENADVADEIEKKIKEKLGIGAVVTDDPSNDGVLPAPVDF

[4] = target: T5, Replicative DNA helicase DnaB (Mycobacterium tuberculosis, UniProt P9WMR3); assay: DnaB intein splicing inhibitors, dose response, biochemical, cell-free fluorescence (AID 449749); type: functional
T5 sequence (P9WMR3 whole entry): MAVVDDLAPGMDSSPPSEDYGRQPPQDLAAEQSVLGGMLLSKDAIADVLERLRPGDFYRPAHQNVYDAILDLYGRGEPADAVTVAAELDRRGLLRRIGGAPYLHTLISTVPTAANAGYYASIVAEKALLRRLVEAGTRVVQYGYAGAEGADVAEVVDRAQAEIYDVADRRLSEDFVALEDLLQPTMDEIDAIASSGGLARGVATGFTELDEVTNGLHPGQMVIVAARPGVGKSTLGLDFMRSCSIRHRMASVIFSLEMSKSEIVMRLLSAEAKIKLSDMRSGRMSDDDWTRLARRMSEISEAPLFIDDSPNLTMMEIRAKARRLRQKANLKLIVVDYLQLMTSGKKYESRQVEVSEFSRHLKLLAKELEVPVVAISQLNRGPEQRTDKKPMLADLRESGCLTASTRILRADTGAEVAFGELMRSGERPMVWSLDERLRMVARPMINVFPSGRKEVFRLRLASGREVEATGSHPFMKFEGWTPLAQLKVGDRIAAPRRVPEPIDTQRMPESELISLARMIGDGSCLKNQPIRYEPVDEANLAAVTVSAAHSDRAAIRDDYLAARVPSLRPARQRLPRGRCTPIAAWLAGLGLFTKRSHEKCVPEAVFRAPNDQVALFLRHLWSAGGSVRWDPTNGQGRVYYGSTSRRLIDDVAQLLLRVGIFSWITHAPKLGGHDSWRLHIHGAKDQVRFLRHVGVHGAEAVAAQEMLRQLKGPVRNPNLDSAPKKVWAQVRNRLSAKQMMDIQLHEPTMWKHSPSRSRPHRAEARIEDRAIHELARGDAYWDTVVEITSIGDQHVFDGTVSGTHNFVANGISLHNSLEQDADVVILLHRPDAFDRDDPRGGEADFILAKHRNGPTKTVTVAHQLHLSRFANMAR

[5] = Luminescence Cell-Based Dose Response HTS to Identify Activators of Luciferase Translation or Activity in H4 […] Cells. [Related pubchem assays: 1829 (Project Summary), 1814 (Primary HTS)]; type: functional
H4 = assay: Luminescence Cell-Based Dose Response HTS to Identify Activators of 5'UTR Stem-Loop Driven Prion Protein mRNA Translation in H4 Neuroglioblastoma Cells. [Related pubchem assays: 1829 (Project Summary), 1814 (Primary HTS)]; type: functional; conditions: Homo sapiens
Cytochrome P450 1A2 = target: T6, Cytochrome P450 1A2 (Homo sapiens, UniProt P05177);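 also: PubChem cytochrome P450 panel assay, CYP1A2 panel member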
T6 sequence (P05177 whole entry): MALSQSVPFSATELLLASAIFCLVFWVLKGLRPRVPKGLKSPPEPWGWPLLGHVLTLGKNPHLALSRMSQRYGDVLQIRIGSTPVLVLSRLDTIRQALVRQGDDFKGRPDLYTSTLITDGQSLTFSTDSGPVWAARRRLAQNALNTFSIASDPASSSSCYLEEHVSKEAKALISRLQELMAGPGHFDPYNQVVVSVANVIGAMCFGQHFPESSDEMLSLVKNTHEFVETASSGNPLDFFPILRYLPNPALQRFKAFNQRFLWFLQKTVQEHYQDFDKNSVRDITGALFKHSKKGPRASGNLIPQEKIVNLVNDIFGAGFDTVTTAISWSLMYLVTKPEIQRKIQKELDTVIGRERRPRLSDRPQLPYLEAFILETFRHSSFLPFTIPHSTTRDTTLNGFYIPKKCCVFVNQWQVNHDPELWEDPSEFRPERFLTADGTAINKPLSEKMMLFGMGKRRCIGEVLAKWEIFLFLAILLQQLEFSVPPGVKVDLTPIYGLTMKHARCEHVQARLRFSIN

SMILES | EC50 [1] | EC50 [2] | EC50 [3] | also measured
COc1cccc(N2CCN(C(S)=Nc3cc(C)cc(C)c3)CC2)c1 | 94.4 µM (active) |  |  | 
CCOc1ccc2nc(NC(=O)/C=C/c3ccc4c(c3)OCO4)sc2c1 | > 195 µM (not active) |  |  | 
CN1CC=C2C(C#N)=C(N)C(C#N)(C#N)C(c3ccncc3)C2C1 (configuration not stated) |  | 7.73 µM (active) | 52.9 µM (inconclusive) | 
Nc1n[nH]c(Sc2ccc([N+](=O)[O-])cc2[N+](=O)[O-])n1 |  | 30.1 µM (active) | 85.7 µM (active) | 
Cc1n[nH]c2c1C(c1c(C)nn(-c3ccccc3)c1C)C(C#N)=C(N)O2 (configuration not stated) |  |  |  | EC50 (Protein RecA): 12.5 µM (active); AC50 [4]: 18.6 µM (active)
O=C(CC1CCCCC1)NCc1ccccn1 | > 195 µM (not active) |  |  | 
COc1ccc(N2CCN(c3oc(Cc4ccccc4)nc3C#N)CC2)cc1 | > 195 µM (not active) |  |  | 
CN1N=C2c3ccccc3CCC2C1c1ccc(C(F)(F)F)cc1 (configuration not stated) | 79.4 µM (active) |  |  | 
Cc1n[nH]c(N=Nc2ccc(O)cc2)n1 |  | 4.83 µM (active) | > 300 µM (not active) | 
CCOC1(OCC)C(c2ccc(Cl)cc2)C(C#N)(C#N)C1(OCC)OCC (configuration not stated) |  |  |  | EC50 (Protein RecA): > 380 µM (inconclusive); AC50 [4]: 148 µM (active)
CC(C)(C)c1cnnn1-c1ccc(C(=O)CCl)cc1 |  |  |  | EC50 (Protein RecA): 2.89 µM (active); AC50 [4]: 4.17 µM (active)
CCOC(=O)/C(C#N)=C1/SC(C)C(=O)N1c1ccc(Br)cc1 (configuration not stated) |  |  |  | EC50 (Protein RecA): 11.1 µM (active); AC50 [4]: 21 µM (active)
CCCCOc1cccc(C2C(C(=O)c3cccs3)=C(O)C(=O)N2Cc2cccnc2)c1 (configuration not stated) | > 195 µM (not active) |  |  | 
Cn1c2ccccc2c2cnn(CC(=O)N3CCC4(CC3)OCCO4)c(=O)c21 | 39.3 µM (active) |  |  | 
CCCCc1ccc(/C=C2\C(=O)ON=C2c2ccccc2)s1 |  | 87.7 µM (active) | 68 µM (active) | 
CCOC(=O)Cc1nc2ccccc2n(CC#N)c1=O |  | > 300 µM (not active) | > 300 µM (not active) | 
CCOC(=O)[C@]1(C#N)[C@@H]2C=CC(C(C)=O)=CN2[C@@H](C(N)=O)[C@@H]1c1ccsc1 |  | 12.3 µM (active) | 2.5 µM (active) | 
COc1cc2c(cc1OC)C(/C=C(\O)c1ccc(C)cc1)=NCC2 | > 195 µM (not active) |  |  | 
Cc1ccc(N(CC(=O)Nc2ccc(-c3nc4ccc(C)cc4s3)cc2)S(C)(=O)=O)cc1 |  |  |  | EC50 [5]: 1.19 µM (active); EC50 (H4): > 120 µM (not active)
Cc1nc(N2CCN(Cc3ccccc3)CC2)c(C#N)c2c1COC(C)(C)C2 |  | 108 µM (active) | 94.5 µM (active) | 
Cc1ccc(OCCC(=O)OCC(=O)Nc2ccc(N3CCOCC3)cc2)cc1 | > 195 µM (not active) |  |  | 
Cc1ccc(C(=O)C2C(c3ccc(-c4ccccc4[N+](=O)[O-])o3)NC(=O)NC2(O)C(F)(F)F)cc1 (configuration not stated) |  |  |  | EC50 (Protein RecA): 11.6 µM (active); AC50 [4]: 5.13 µM (active)
CCOC(=O)N1CCC(c2cc(=O)n(-c3ccccc3)[nH]2)CC1 |  |  |  | EC50 (Protein RecA): 2.51 µM (active); AC50 [4]: 3.66 µM (active)
CCO/C(C)=N/n1c2nc3ccccc3nc2c2c(=O)n(C3CCCC3)c(C)nc21 |  | > 300 µM (not active) | > 300 µM (not active) | 
Cc1ccc(S(=O)(=O)N/N=C/c2c(C)nn(-c3ccccc3)c2C)cc1 | > 195 µM (not active) |  |  | 
NCCCC(=O)O [GAMMA-AMINOBUTYRIC ACID] | > 195 µM (not active) |  |  | AC50 (Cytochrome P450 1A2): 31.6 µM (inconclusive)
